One experiment has as its system PC-3 cell proliferation. As to the kind of experiment: Cell proliferation assay (WST-1), PC-3 cells. Type of experiment: cell-based. The note with it: Homo sapiens, WST-1 optical density at 450 nm, growth vs DMSO (100%) and 10 μM Actinomycin D (0%), read-out: inhibitory activity against PC-3 cell proliferation (IC50 range). How it is done: A panel of cancer cell lines was obtained from the DCTP Tumor Repository, National Cancer Institute (Frederick, Md.) or ATCC (Rockville, Md.). Cell cultures were maintained in Hyclone RPMI 1640 medium (Logan, Utah) supplemented with 10% fetal bovine serum and 20 mM HEPES buffer, final pH 7.2, at 37° C. with a 5% CO2 atmosphere. Cultures were maintained at sub-confluent densities. Human umbilical vein endothelial cells (HUVEC) were purchased from Clonetics, a division of Cambrex (Walkersville, Md.). Cultures were established from cryopreserved stocks using Clonetics EGM-2 medium supplemented with 20 mM HEPES, final pH 7.2, at 37° C. with a 5% CO2 atmosphere.
For proliferation assays, cells were seeded with the appropriate medium into 96 well plates at 1,000-2,500 cells per well, depending on the cell line, and were incubated overnight. The following day, test compound, DMSO solution (negative control), or Actinomycin D (positive control) was added to the appropriate wells as 10× concentrated stocks prepared in phosphate buffered saline. The cell plates were then incubated for an additional 2-5 days, depending on the cell line, to allow proliferation to occur. To measure cell density, 50 μL of WST-1 solution (Roche Applied Science, IN) diluted 1:5 in phosphate buffered saline was added to each well, and the cells incubated for an additional 1-5 hrs., again depending on the cell line. Optical density was determined for each well at […] using a Tecan GeniosPro plate reader (RTP, NC). The percentage of cell growth was determined by comparing the cell growth in the presence of test compounds to the cells treated with DMSO vehicle (control, 100% growth) and cells treated with Actinomycin D (10 μM, 0% growth).
Immediately after the WST-1 determination, the medium was removed from the PC-3, NCI-H460 and HUVEC cell lines, and the plates stored at −80° C. Using these assay plates, relative amounts of DNA in each well were determined using the Cyquant DNA assay kit from […] (Eugene, Oreg.) following the manufacturer's directions. Results for each compound treatment were compared to DMSO vehicle control (100%) and 10 μM Actinomycin D treated cells (0%).
Several exemplary compounds useful in the methods of the invention are listed below.
Consider `Cc1nn(-c2ccc(C(N)=O)c(NC3CCC(OC(=O)CCN)CC3)c2)c2c1C(=O)CC(C)(C)C2` (stereo not drawn), for which the IC50 lay in the range of 500 to 5000 nM.

For `CC1(C)CC(=O)c2c(C(F)(F)F)nn(-c3ccc(C(N)=O)c(NC4CCC(OC(=O)[C@@H](N)CCCCN)CC4)c3)c2C1` (stereo partly drawn), the IC50 was < 500 nM.

Take `CC1(C)CC(=O)c2c(C(F)(F)F)nn(-c3ccc(C(N)=O)c(NC4CCC(OC(=O)CCNC(=O)[C@@H](N)CCCN)CC4)c3)c2C1` (stereo partly drawn): the IC50 was < 500 nM.

Turning to `CC1(C)CC(=O)c2c(C(F)F)nn(-c3ccc(C(N)=O)c(N[C@H]4CC[C@H](O)CC4)c3)c2C1` [drawing 85], the IC50 was < 500 nM.

For `Cc1nn(-c2ccc(C(N)=O)c(NC3CCC(OC(=O)CCNC(=O)OC(C)(C)C)CC3)c2)c2c1C(=O)CC(C)(C)C2` (stereo not drawn) [drawing 88], the IC50 is < 500 nM.

On to `Cc1nn(-c2ccc(C#N)c(Br)c2)c2c1C(=O)CC(C)(C)C2` [drawing 89], for which the IC50 lay within 5000 to 50000 nM.

Another experiment has as its system HSP-90 (heat shock protein 90). As to the kind of experiment: Determination of affinity for HSP-90 (elution from purine affinity column). Type of experiment: binding. On the set-up: key: A stands for very high; B for high; C for moderate. Conditions: purine affinity column loaded with organ tissue proteins; eluted with 20μM, 100 μM, and 500 μM of test compound; densitometry. How it is done:
Affinity of test compounds for HSP-90 was determined as follows: Protein mixtures obtained from a variety of organ tissues (for example: spleen, liver and lung) were reversibly bound to a purine affinity column to capture purine-binding proteins, especially HSP-90. The purine affinity column was washed several times, and then eluted with 20μM, 100 μM, and 500 μM of test compound. Compounds of Formula I elute HP-90 in a dose-dependent manner vs. a control elution using dimethylsulfoxide. The elution profile of Formula I compounds was determined by 1-dimensional SDS polyacrylamide gel electrophoresis. Gels were stained with a fluorescent stain such as sypro ruby (a highly sensitive fluorescent protein stain that can readily detect less than 1 fmol of total protein, i.e., less than 0.04 ng for a 40 kDa protein) or silver nitrate. The gels were imaged using a standard flat bed gel imager and the amount of protein estimated by densitometry. The percent of HSP-90 protein eluted from the column at each concentration was determined and IC50 values were calculated from these estimates. The identity of a band containing HSP-90 was determined by protein sequencing using mass spectroscopy.
Compounds of the invention are inhibitors of HSP-90 (heat shock protein 90). Several exemplary compounds useful in the methods of the invention are listed below.
Consider `CS(=O)(=O)O.Cc1nn(-c2ccc(C(N)=O)c(NC3CCC(OC(=O)CCN)CC3)c2)c2c1C(=O)CC(C)(C)C2` (stereo not drawn), for which the “relative binding affinity to HSP-90” value is listed as “A”.

For `CC1(C)CC(=O)c2c(C(F)(F)F)nn(-c3ccc(C(N)=O)c(NC4CCC(OC(=O)[C@@H](N)CCCCN)CC4)c3)c2C1.CS(=O)(=O)O.CS(=O)(=O)O` (stereo partly drawn), the “relative binding affinity to HSP-90” value was “A”.

In the case of `CC1(C)CC(=O)c2c(C(F)(F)F)nn(-c3ccc(C(N)=O)c(NC4CCC(OC(=O)CCNC(=O)[C@@H](N)CCCN)CC4)c3)c2C1.CS(=O)(=O)O.CS(=O)(=O)O` (stereo partly drawn), the “relative binding affinity to HSP-90” value is reported as “A”.

Take `CC1(C)CC(=O)c2c(C(F)F)nn(-c3ccc(C(N)=O)c(N[C@H]4CC[C@H](O)CC4)c3)c2C1` [drawing 91]: the “relative binding affinity to HSP-90” value was “A”.

Consider `Cc1nn(-c2ccc(C(N)=O)c(NC3CCC(OC(=O)CCNC(=O)OC(C)(C)C)CC3)c2)c2c1C(=O)CC(C)(C)C2` (stereo not drawn) [drawing 94], for which the “relative binding affinity to HSP-90” value is listed as “A”.

On to `Cc1nn(-c2ccc(C#N)c(Br)c2)c2c1C(=O)CC(C)(C)C2` [drawing 95], for which the “relative binding affinity to HSP-90” value is “C”.

(Values after patent publication US20070207984A1, “Cyclohexylamino Benzene, Pyridine, and Pyridazine Derivatives” (priority 2006, published 2007).)
